Results reported in patent publication US20240083910A1, “AMIDO-SUBSTITUTED PYRIDYL COMPOUNDS AND METHODS OF USE THEREOF FOR THE TREATMENT OF HERPESVIRUSES” (Merck Sharp & Dohme LLC, priority 2020, published 2024).
Read-outs that look alike come from different tables or passages of the source.

Legend:
HCMV Strain AD169 = test: Viral qPCR assay, HCMV; assay type: cell-based, Human cytomegalovirus; details: MRC-5 cells, 0.05-0.1 pfu/cell, growth media or 50% fetal bovine serum, viral genome copies by qPCR, read-out: CMV Cell (EC50)
Description: (§1) MRC5 cells, Vero cells, and MeWo cells were obtained from ATCC, and were maintained at 37° C./5% CO2/90% relative humidity in Minimal Essential Medium with 10% fetal bovine serum, […] L-glutamine, 100 units/ml penicillin and 100 ug/ml streptomycin. Assay plates were prepared by dispensing compounds dissolved in DMSO into wells of 384 well collagen-coated plates using an ECHO acoustic dispenser. Each compound was tested in a 10-point, serial 3-fold dilution. Controls included uninfected cells and infected cells treated only with DMSO. Assays were initiated by mixing selected cells, in suspension, with virus, and dispensing 50 μl/well infected cells to pre-plated compounds. Plates were incubated at 37° C./5% CO2/90% relative humidity for ˜72 hrs to permit genomic replication, and infected cells were lysed by the addition of an equal volume of lysis buffer (10 mM Tris-HCl, pH8, 50 mM KCl, 2 mM MgCl2, 0.45% NP-40, 0.45% Tween-20, and 100 μg/ml proteinase K). An aliquot of the lysate was transferred to a 384-well PCR plate and incubated at 56° C. for 1 hour and then at 95° C. for 10 min. Levels of a viral gene and of the cellular control, PPIA (Thermo Fisher Assay ID=Hs04194521_s1), were measured in separate 10 ul qPCR assays using TaqMan® Gene Expression Master Mix (Applied Biosystems), and an 7900HT Fast Real-Time PCR System with 384-Well Block Module. 7-point, serial 10-fold dilutions of a plasmid standard were run on each plate to generate a standard curve, and genome copies numbers were calculated by plotting experimental Ct onto linear regression of the standard curve. Viral genome copy numbers were normalized by cellular control copy number, and compound effects were normalized to the window defined by the controls. Calculated % effects were fit using a 4-parameter algorithm, and EC50 was reported.
(§2) MRC5 cells, Vero cells, and MeWo cells were obtained from ATCC, and were maintained at 37° C./5% CO2/90% relative humidity in Minimal Essential Medium with 10% fetal bovine serum, […] L-glutamine, 100 units/ml penicillin and 100 ug/ml streptomycin. Assay plates were prepared by dispensing compounds dissolved in DMSO into wells of 384 well collagen-coated plates using an ECHO acoustic dispenser. Each compound was tested in a 10-point, serial 3-fold dilution. Controls included uninfected cells and infected cells treated only with DMSO. Assays were initiated by mixing selected cells, in suspension, with virus, and dispensing 50 μl/well infected cells to pre-plated compounds. Plates were incubated at 37° C./5% CO2/90% relative humidity for ˜72 hrs to permit genomic replication, and infected cells were lysed by the addition of an equal volume of lysis buffer (10 mM Tris-HCl, pH 8, 50 mM KCl, 2 mM MgC12, 0.45% NP-40, 0.45% Tween-20, and 100 μg/ml proteinase K). An aliquot of the lysate was transferred to a 384-well PCR plate and incubated at 56° C. for 1 hour and then at 95° C. for 10 min. Levels of a viral gene were measured in 10 ul qPCR assays using TaqMan® Gene Expression Master Mix (Applied Biosystems), and an 7900HT Fast Real-Time PCR System with 384-Well Block Module. 7-point, serial 10-fold dilutions of a plasmid standard were run on each plate to generate a standard curve, and genome copies numbers were calculated by plotting experimental Ct onto linear regression of the standard curve. Compound effects on viral genome copy number were normalized to the window defined by the controls. Calculated % effects were fit using a 4-parameter algorithm, and ECso was reported.
HCMV: Strain AD169 Street was assayed in MRC-5 cells and was used at 0.05-0.1 pfu/cell. The assays were performed in either growth media or in the same media with 50% fetal bovine serum. Primer-probe set was Thermo Fisher Assay ID=AIFATFK.

[1] = target: T1, Human cytomegalovirus DNA polymerase (Human cytomegalovirus, UniProt P08546); test: CMV polymerase assay (AlphaLISA); assay type: biochemical; details: HCMV polymerase 0.2 nM, 30 min pre-incubation, 60 min at 37° C.
T1 construct: made in house; host or cells: SF21 insect cells (baculovirus vector)
Description: Human cytomegalovirus and varicella zoster virus DNA polymerases were expressed via baculovirus vector in SF21 cells and purified. Heterodimeric nucleic acid substrate used in the herpesvirus polymerase reactions was generated by annealing a 59-mer template to a 17-mer digoxigenin-labeled primer. Polymerase (HCMV final concentration of 0.2 nM; VZV final concentration of 0.4 nM) was combined with an inhibitor compound or DMSO in assay buffer (10 mM HEPES, pH 7.5, 25 mM KCl, 25 mM NaCl, 5 mM MgCl2, 5% glycerol, 0.67 mg/ml bovine serum albumin, and 1 mM tris(2-carboxyethyl)phosphine), and this mixture was pre-incubated for 30 minutes at room temperature in 384-well microtiter plates. The polymerization reaction was initiated by the addition of template/primer substrate (final concentration: 1.6 nM), and dNTPs (final concentration: 24 nM dCTP, 24 nMdGTP, 16 nM dATP, 16 nM dTTP, and 0.8 nM biotin-dUTP). After 60 min incubation at 37° C., reactions were terminated with quench buffer (25 mM HEPES pH 7.5, 100 mM NaCl, 0.25% Tween-20, 12 mM EDTA, and 1 mg/ml bovine serum albumin). Incorporation of biotinylated UTP was detected with 2.5-5 ug/ml anti-DIG AlphaLISA acceptor beads and 5-10 ug/ml streptavidin AlphaLISA donor beads (PerkinElmer). Compound effects were normalized to the window defined by the controls (DMSO only and pre-quenched wells) and were fit using a 4-parameter algorithm to report an IC50.

VZV = test: Viral qPCR assay, VZV; assay type: cell-based, varicella zoster virus; details: MeWo or MRC5 cells, 0.04-0.1 pfu/cell, growth medium, viral genome copies by qPCR
Description: as §1, §2
VZV: Strain Street was maintained as an infected cell stock in MRC-5 cells. It was assayed in MeWo or MRC5 cells and was used at 0.04-0.1 pfu/cell. The assays were performed in growth medium. Primer-probe set was Thermo Fisher Assay ID=AIPAEXQ.

HSV-1 Strain F = test: Viral qPCR assay, HSV-1; assay type: cell-based, Herpes Simplex Virus type 1; details: Human alphaherpesvirus 1, 72 h, Vero or MRC5 cells, 0.0005-0.004 pfu/cell, growth medium, viral genome copies by qPCR, read-out: HSV1 Cell (EC50)
Description: as §1, §2
HSV-1: Strain F […] was assayed in Vero or MRC5 cells and was used at 0.0005-0.004 pfu/cell in growth medium. Primer-probe set was Thermo Fisher Assay ID=AIBJZIB

[2] = Human betaherpesvirus 5, AD169, MRC5, 72 h

T1 sequence (P08546 whole entry): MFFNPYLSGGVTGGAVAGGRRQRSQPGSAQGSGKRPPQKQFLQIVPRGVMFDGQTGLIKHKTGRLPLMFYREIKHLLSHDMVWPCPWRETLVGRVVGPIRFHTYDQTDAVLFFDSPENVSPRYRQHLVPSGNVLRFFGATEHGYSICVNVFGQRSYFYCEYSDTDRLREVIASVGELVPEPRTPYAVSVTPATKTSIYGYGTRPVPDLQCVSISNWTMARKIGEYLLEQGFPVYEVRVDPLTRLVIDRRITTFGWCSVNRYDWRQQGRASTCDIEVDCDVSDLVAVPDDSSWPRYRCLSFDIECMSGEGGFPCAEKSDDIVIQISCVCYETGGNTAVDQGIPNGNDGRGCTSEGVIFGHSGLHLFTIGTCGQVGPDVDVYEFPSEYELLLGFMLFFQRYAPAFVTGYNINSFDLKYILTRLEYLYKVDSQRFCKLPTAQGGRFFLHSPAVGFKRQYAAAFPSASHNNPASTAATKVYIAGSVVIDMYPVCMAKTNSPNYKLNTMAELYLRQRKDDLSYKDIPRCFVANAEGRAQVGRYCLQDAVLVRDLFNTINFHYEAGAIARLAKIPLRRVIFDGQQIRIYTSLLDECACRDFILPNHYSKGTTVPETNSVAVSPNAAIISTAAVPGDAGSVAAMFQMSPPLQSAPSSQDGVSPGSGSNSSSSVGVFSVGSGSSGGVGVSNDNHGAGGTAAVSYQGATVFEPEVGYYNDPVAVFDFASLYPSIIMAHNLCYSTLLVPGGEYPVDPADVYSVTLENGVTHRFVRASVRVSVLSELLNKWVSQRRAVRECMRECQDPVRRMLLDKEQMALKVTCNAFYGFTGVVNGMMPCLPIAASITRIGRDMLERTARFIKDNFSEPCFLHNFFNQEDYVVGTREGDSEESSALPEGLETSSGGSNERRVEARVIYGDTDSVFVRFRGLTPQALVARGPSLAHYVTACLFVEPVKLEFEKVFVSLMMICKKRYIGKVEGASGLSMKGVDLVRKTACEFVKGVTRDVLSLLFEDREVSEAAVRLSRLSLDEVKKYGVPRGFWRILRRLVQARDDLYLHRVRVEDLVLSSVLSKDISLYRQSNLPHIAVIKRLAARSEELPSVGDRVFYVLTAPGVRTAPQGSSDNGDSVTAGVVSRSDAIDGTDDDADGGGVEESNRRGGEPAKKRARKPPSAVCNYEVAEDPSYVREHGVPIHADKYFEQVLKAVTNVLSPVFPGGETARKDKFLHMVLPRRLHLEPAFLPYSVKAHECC

Row | Compound | IC50 ([1]; read-out: CMV (IC50)) [nM] | EC50 (HCMV Strain AD169; [2]) [nM] | EC50 (VZV; Human alphaherpesvirus 3, 72 h) [nM] | EC50 (HSV-1 Strain F) [nM] | EC50 (VZV; ~72 hrs) [nM] | EC50 (HCMV Strain AD169; ~72 hrs) [nM] | IC50 ([1]; CMV (IC50)) [nM]
1 | COc1nc(N2CC3(C(C)(C)O)CC2C3)c(O[C@H]2CCN3C(=O)OC[C@@H]3C2)cc1C(=O)NCc1ccc(Cl)cc1 [Compound 69] | 53.9 | 1480 |  |  |  |  | 
2 | COc1nc(-c2ccc(C)s2)c(O[C@H]2CCN3C(=O)OC[C@@H]3C2)cc1C(=O)NCc1ccc(Cl)cc1 [Compound 14] | 19.2 | 1020 | 2570 | 824 |  |  | 
3 | COc1nc(-c2ccccn2)c(O[C@H]2CCN3C(=O)OC[C@@H]3C2)cc1C(=O)NCc1ccc(Cl)cc1 [Compound 52] | 120 | 3480 |  |  |  |  | 
4 | COc1ccc(-c2nc(OC)c(C(=O)NCc3ccc(Cl)cc3)cc2O[C@H]2CCN3C(=O)OC[C@@H]3C2)cn1 [Compound 43] | 22.3 | 422 | 298 | 169 |  |  | 
5 | O=C(NCc1ccc(Cl)cc1)c1cc(O[C@H]2CCN3C(=O)OC[C@@H]3C2)c(-c2cnn(C(F)F)c2)nc1OCCF [Compound 89] | 12.1 | 195 | 246 | 203 |  |  | 
6 | COc1nc(-c2cncc(CO)c2)c(O[C@H]2CCN3C(=O)OC[C@@H]3C2)cc1C(=O)NCc1ccc(Cl)cc1 [Compound 44] | 20 | 326 | 585 | 263 |  |  | 
7 | COc1nc(-c2cnc(N)nc2)c(O[C@H]2CCN3C(=O)OC[C@@H]3C2)cc1C(=O)NCc1ccc(Cl)cc1 [Compound 45] | 2.3 | 111 | 141 | 50 |  |  | 
8 | COc1nc(C2CC(O)C2)c(O[C@H]2CCN3C(=O)OC[C@@H]3C2)cc1C(=O)NCc1ccc(Cl)cc1 (single isomer, unassigned) [Compound 74] | 31.6 | 356 | 709 | 271 |  |  | 
9 | COc1nc(C2CC2O)c(O[C@H]2CCN3C(=O)OC[C@@H]3C2)cc1C(=O)NCc1ccc(Cl)cc1 (single isomer, unassigned) [Compound 77] |  |  |  |  |  | 872 | 31.5
10 | COc1nc(-c2ccc3cc[nH]c3c2)c(O[C@H]2CCN3C(=O)OC[C@@H]3C2)cc1C(=O)NCc1ccc(Cl)cc1 [Compound 50] | 80.7 | 2760 |  |  |  |  | 
11 | COc1nccc(-c2nc(OC)c(C(=O)NCc3ccc(Cl)cc3)cc2O[C@H]2CCN3C(=O)OC[C@@H]3C2)n1 [Compound 53] | 164 | 3990 |  |  |  |  | 
12 | COc1nc(C2CC2O)c(O[C@H]2CCN3C(=O)OC[C@@H]3C2)cc1C(=O)NCc1ccc(Cl)cc1 (single isomer, unassigned) [Compound 80] | 98.9 |  |  |  |  | 3210 | 
13 | COc1nc(-c2cc(C(F)(F)F)nn2C)c(O[C@H]2CCN3C(=O)OC[C@@H]3C2)cc1C(=O)NCc1ccc(Cl)cc1 [Compound 48] | 193 | 2010 |  |  |  |  | 
14 | COc1nc(-c2cc[nH]n2)c(O[C@H]2CCN3C(=O)OC[C@@H]3C2)cc1C(=O)NCc1ccc(Cl)cc1 [Compound 18] | 19.6 | 1200 |  |  |  |  | 

More lines, in order of falling IC50 ([1]; read-out: CMV (IC50)), values ahead:

Row | IC50 ([1]; read-out: CMV (IC50)) [nM] | Compound | EC50 (HCMV Strain AD169; [2]) [nM] | EC50 (VZV; Human alphaherpesvirus 3, 72 h) [nM] | EC50 (HSV-1 Strain F) [nM] | EC50 (VZV; ~72 hrs) [nM] | EC50 (HCMV Strain AD169; ~72 hrs) [nM] | IC50 ([1]; CMV (IC50)) [nM]
15 | 133 | COc1nc(-c2ccnc3[nH]ccc23)c(O[C@H]2CCN3C(=O)OC[C@@H]3C2)cc1C(=O)NCc1ccc(Cl)cc1 [Compound 51] | 3340 |  |  |  |  | 
16 | 131 | COc1nc(-c2cccc3cc[nH]c23)c(O[C@H]2CCN3C(=O)OC[C@@H]3C2)cc1C(=O)NCc1ccc(Cl)cc1 [Compound 49] | 2740 |  |  |  |  | 
17 | 81.5 | COc1nc(-c2ccc3[nH]ccc3c2)c(O[C@H]2CCN3C(=O)OC[C@@H]3C2)cc1C(=O)NCc1ccc(Cl)cc1 [Compound 39] | 886 | 1360 | 658 |  |  | 
18 | 79.5 | COc1ccc(-c2nc(OC)c(C(=O)NCc3ccc(Cl)cc3)cc2O[C@H]2CCN3C(=O)OC[C@@H]3C2)nc1 [Compound 35] | 1940 |  |  |  |  | 
19 | 33.6 | COc1nc(-c2cc3nccnc3[nH]2)c(O[C@H]2CCN3C(=O)OC[C@@H]3C2)cc1C(=O)NCc1ccc(Cl)cc1 [Compound 27] | 556 | 859 | 648 |  |  | 
20 | 31.2 | COc1nc(-c2csc(-n3cccn3)n2)c(O[C@H]2CCN3C(=O)OC[C@@H]3C2)cc1C(=O)NCc1ccc(Cl)cc1 [Compound 29] | 514 | 368 | 246 |  |  | 
21 | 23.7 | COc1nc(-c2cc3cccc(OC)c3[nH]2)c(O[C@H]2CCN3C(=O)OC[C@@H]3C2)cc1C(=O)NCc1ccc(Cl)cc1 [Compound 54] | 5260 |  |  |  |  | 
22 | 22.9 | COc1nc(N2CCC(C(C)(C)O)C2)c(O[C@H]2CCN3C(=O)OC[C@@H]3C2)cc1C(=O)NCc1ccc(Cl)cc1 (stereo partly shown) [Compound 67] | 368 |  | 568 | 2270 |  | 
23 | 16.2 | COc1nc(-c2ccc(C)o2)c(O[C@H]2CCN3C(=O)OC[C@@H]3C2)cc1C(=O)NCc1ccc(Cl)cc1 [Compound 13] | 457 | 307 | 229 |  |  | 
24 | 9.83 | CC1(COc2nc(-c3cnn(C(F)F)c3)c(O[C@H]3CCN4C(=O)OC[C@@H]4C3)cc2C(=O)NCc2ccc(Cl)cc2)COC1 [Compound 90] | 131 | 286 | 180 |  |  | 
25 | 7.31 | CC(C)(C#N)COc1nc(-c2cnn(C(F)F)c2)c(O[C@H]2CCN3C(=O)OC[C@@H]3C2)cc1C(=O)NCc1ccc(Cl)cc1 [Compound 92] | 137 | 417 | 229 |  |  | 
